# Laboratory results from ChEMBL document CHEMBL1687756 (Antimicrob Agents Chemother, 2010).
# Columns and labels:
# [1] = Ratio of drug level in thymus to plasma in female Beagle dog at 200 mg/kg administered intramuscularly after 3 months; format: ADME, organism-based, Canis lupus familiaris; set-up: dose 200 mg/kg, route intramuscular; details: im
# [2] = Ratio of drug level in lymph node popliteal to plasma in Beagle dog at 5 mg/kg, sc after 6 months; format: ADME, organism-based, Canis lupus familiaris; set-up: dose 5 mg/kg, route subcutaneous
# [3] = AUC (0 to last) in Beagle dog at 5 mg/kg, sc after 184 days; format: ADME, organism-based, Canis lupus familiaris; set-up: time 0 - last, dose 5 mg/kg, route subcutaneous; details: plasma
# [4] = Ratio of drug level in thymus to plasma in Beagle dog at 5 mg/kg, sc after 6 months; format: ADME, organism-based, Canis lupus familiaris; set-up: dose 5 mg/kg, route subcutaneous
# [5] = Drug level in male Beagle dog thymus at 400 mg/kg administered intramuscularly after 3 months; format: ADME, organism-based, Canis lupus familiaris; set-up: dose 400 mg/kg, route intramuscular; details: im, read-out: Drug uptake
# [6] = Cmax in female dog at 200 mg administered intramuscularly after 85 days; details: in vivo, im
# [7] = Drug level in Beagle dog spleen at 5 mg/kg administered intramuscularly after 6 months; format: ADME, organism-based, Canis lupus familiaris; set-up: dose 5 mg/kg, route intramuscular; details: im, read-out: Drug uptake
# [8] = Ratio of drug level in spleen to plasma in female Beagle dog at 400 mg/kg administered intramuscularly after 1 month; format: ADME, organism-based, Canis lupus familiaris; set-up: dose 400 mg/kg, route intramuscular; details: im
# [9] = Ratio of drug level in spleen to plasma in male Beagle dog at 400 mg/kg, sc after 3 months; format: ADME, organism-based, Canis lupus familiaris; set-up: dose 400 mg/kg, route subcutaneous
# [10] = Ratio of drug level in spleen to plasma in Beagle dog at 5 mg/kg, sc after 3 months; format: ADME, organism-based, Canis lupus familiaris; set-up: dose 5 mg/kg, route subcutaneous
# [11] = Drug level in female Beagle dog spleen at 400 mg/kg, sc after 1 month; format: ADME, organism-based, Canis lupus familiaris; set-up: dose 400 mg/kg, route subcutaneous; details: read-out: Drug uptake
# [12] = Ratio of drug level in thymus to plasma in female Beagle dog at 400 mg/kg, sc after 3 months; format: ADME, organism-based, Canis lupus familiaris; set-up: dose 400 mg/kg, route subcutaneous
# [13] = Ratio of drug level in spleen to plasma in female Beagle dog at 200 mg/kg, sc after 1 month; format: ADME, organism-based, Canis lupus familiaris; set-up: dose 200 mg/kg, route subcutaneous
# [14] = Ratio of drug level in thymus to plasma in female Beagle dog at 400 mg/kg administered intramuscularly after 3 months; format: ADME, organism-based, Canis lupus familiaris; set-up: dose 400 mg/kg, route intramuscular; details: im
# [15] = Plasma concentration in female Beagle dog at 400 mg/kg administered intramuscularly after 1 month; format: ADME, organism-based, Canis lupus familiaris; set-up: dose 400 mg/kg, route intramuscular; details: im, read-out: Drug uptake
# [16] = Drug level in Beagle dog skin at non-injected site at 5 mg/kg, sc after 6 months; format: ADME, organism-based, Canis lupus familiaris, Zone of skin; set-up: dose 5 mg/kg, route subcutaneous; details: read-out: Drug uptake
# Canis familiaris [17] = test: Toxicity in Beagle dog assessed as abscess formation at 20 mg/kg administered intramuscularly after 3 months; format: organism-based, Canis lupus familiaris; set-up: dose 20 mg/kg, route intramuscular; details: in vivo, im, 2191.5 h
# [18] = Cmax in Beagle dog at 5 mg/kg administered intramuscularly after 184 days; format: ADME, organism-based, Canis lupus familiaris; set-up: dose 5 mg/kg, route intramuscular; details: in vivo, im
# [19] = Drug level in male Beagle dog thymus at 200 mg/kg, sc after 1 month; format: ADME, organism-based, Canis lupus familiaris; set-up: dose 200 mg/kg, route subcutaneous; details: read-out: Drug uptake
# [20] = Drug level in Beagle dog muscle at injected site at 5 mg/kg administered intramuscularly after 6 months; format: ADME, organism-based, Canis lupus familiaris, Muscle tissue; set-up: dose 5 mg/kg, route intramuscular; details: im, read-out: Drug uptake
# [21] = Plasma concentration in female Beagle dog at 200 mg/kg, sc after 3 months; format: ADME, organism-based, Canis lupus familiaris; set-up: dose 200 mg/kg, route subcutaneous
# [22] = Drug level in female Beagle dog thymus at 400 mg/kg administered intramuscularly after 1 month; format: ADME, organism-based, Canis lupus familiaris; set-up: dose 400 mg/kg, route intramuscular; details: im, read-out: Drug uptake
# [23] = Plasma concentration in male Beagle dog at 200 mg/kg administered intramuscularly after 1 month; format: ADME, organism-based, Canis lupus familiaris; set-up: dose 200 mg/kg, route intramuscular; details: im
# [24] = Absolute bioavailability in Beagle […] at 5 mg/kg administered intramuscularly after 176 days; format: ADME, organism-based, Canis lupus familiaris; details: in vivo, im
# [25] = Drug level in male Beagle dog spleen at 200 mg/kg, sc after 1 month; format: ADME, organism-based, Canis lupus familiaris; set-up: dose 200 mg/kg, route subcutaneous; details: read-out: Drug uptake
# [26] = Ratio of drug level in lymph node axillar to plasma in Beagle dog at 5 mg/kg, sc after 6 months; format: ADME, organism-based, Canis lupus familiaris; set-up: dose 5 mg/kg, route subcutaneous; details: axillary lymph node/plasma
# [27] = Cmax in male dog at 200 mg, sc after 29 days; details: in vivo
# [28] = Drug level in male Beagle dog spleen at 400 mg/kg, sc after 3 months; format: ADME, organism-based, Canis lupus familiaris; set-up: dose 400 mg/kg, route subcutaneous; details: read-out: Drug uptake
# [29] = Drug level in Beagle dog skin at injected site at 5 mg/kg administered intramuscularly after 3 months; format: ADME, organism-based, Canis lupus familiaris, Zone of skin; set-up: dose 5 mg/kg, route intramuscular; details: im, read-out: Drug uptake
# [30] = AUC (0 to infinity) in Beagle dog at 1.25 mg/kg, iv after 2 days; format: ADME, organism-based, Canis lupus familiaris; set-up: dose 1.25 mg/kg, route intravenous, time infinity; details: plasma
# [31] = Ratio of drug level in spleen to plasma in female Beagle dog at 200 mg/kg administered intramuscularly after 1 month; format: ADME, organism-based, Canis lupus familiaris; set-up: dose 200 mg/kg, route intramuscular; details: im
# [32] = Ratio of drug level in spleen to plasma in female Beagle dog at 400 mg/kg, sc after 1 month; format: ADME, organism-based, Canis lupus familiaris; set-up: dose 400 mg/kg, route subcutaneous
# [33] = Drug level in female Beagle dog thymus at 200 mg/kg administered intramuscularly after 3 months; format: ADME, organism-based, Canis lupus familiaris; set-up: dose 200 mg/kg, route intramuscular; details: im, read-out: Drug uptake
# [34] = Plasma concentration in female Beagle dog at 200 mg/kg administered intramuscularly after 3 months; format: ADME, organism-based, Canis lupus familiaris; set-up: dose 200 mg/kg, route intramuscular; details: im
# [35] = Drug level in male Beagle dog thymus at 200 mg/kg, sc after 3 months; format: ADME, organism-based, Canis lupus familiaris; set-up: dose 200 mg/kg, route subcutaneous; details: read-out: Drug uptake
# [36] = AUC (0 to last) in Beagle dog at 5 mg/kg, sc after 176 days; format: ADME, organism-based, Canis lupus familiaris; set-up: time 0 - last, dose 5 mg/kg, route subcutaneous; details: plasma
# [37] = Tmax in female dog at 200 mg administered intramuscularly after 29 days; details: in vivo, im
# [38] = Ratio of drug level in thymus to plasma in female Beagle dog at 200 mg/kg, sc after 1 month; format: ADME, organism-based, Canis lupus familiaris; set-up: dose 200 mg/kg, route subcutaneous
# [39] = Drug level in Beagle dog lymph node axillar at 5 mg/kg administered intramuscularly after 6 months; format: ADME, organism-based, Canis lupus familiaris; set-up: dose 5 mg/kg, route intramuscular; details: axillary lymph node, im, read-out: Drug uptake
# Canis familiaris [40] = test: Tmax in Beagle dog at 5 mg/kg, sc after 184 days; format: ADME, organism-based, Canis lupus familiaris; set-up: dose 5 mg/kg, route subcutaneous; details: in vivo, 4416 h
# [41] = Plasma concentration in Beagle dog at 5 mg/kg, sc after 3 months; format: ADME, organism-based, Canis lupus familiaris; set-up: dose 5 mg/kg, route subcutaneous
# [42] = AUC (0 to last) in male dog at 200 mg, sc after 85 days; details: plasma
# [43] = Tmax in Beagle dog at 5 mg/kg administered intramuscularly after 184 days; format: ADME, organism-based, Canis lupus familiaris; set-up: dose 5 mg/kg, route intramuscular; details: in vivo, im
# [44] = Cmax in female dog at 400 mg administered intramuscularly after 29 days; details: in vivo, im
# [45] = Drug level in Beagle dog lymph node iliac at 5 mg/kg, sc after 6 months; format: ADME, organism-based, Canis lupus familiaris; set-up: dose 5 mg/kg, route subcutaneous; details: read-out: Drug uptake
# [46] = Plasma concentration in female Beagle dog at 200 mg/kg administered intramuscularly after 1 month; format: ADME, organism-based, Canis lupus familiaris; set-up: dose 200 mg/kg, route intramuscular; details: im, read-out: Drug uptake
# [47] = Drug level in Beagle dog liver at 5 mg/kg administered intramuscularly after 6 months; format: ADME, organism-based, Canis lupus familiaris; set-up: dose 5 mg/kg, route intramuscular; details: im, read-out: Drug uptake
# [48] = Plasma concentration in male Beagle dog at 400 mg/kg administered intramuscularly after 1 month; format: ADME, organism-based, Canis lupus familiaris; set-up: dose 400 mg/kg, route intramuscular; details: im
# Plasma = test: (§1) Plasma concentration in Beagle dog at 5 mg/kg administered intramuscularly after 3 months; format: ADME, organism-based, Canis lupus familiaris; set-up: dose 5 mg/kg, route intramuscular; details: in vivo, im, 2191.5 h, BLD = below limit of detection
# [49] = as §1; format: ADME, organism-based, Canis lupus familiaris; set-up: dose 5 mg/kg, route intramuscular; details: im
# [50] = AUC (0 to last) in male dog at 200 mg, sc after 29 days; details: plasma
# [51] = Drug level in Beagle dog muscle at non-injected site at 5 mg/kg administered intramuscularly after 6 months; format: ADME, organism-based, Canis lupus familiaris, Muscle tissue; set-up: dose 5 mg/kg, route intramuscular; details: im, read-out: Drug uptake
# Canis familiaris [52] = test: Toxicity in Beagle dog assessed as inflammatory signs at 20 mg/kg, sc after 3 months; format: organism-based, Canis lupus familiaris; set-up: dose 20 mg/kg, route subcutaneous; details: in vivo, 2191.5 h
# [53] = Cmax in female dog at 200 mg, sc after 85 days; details: in vivo
# [54] = Ratio of drug level in lymph node popliteal to plasma in Beagle dog at 5 mg/kg, sc after 1 month; format: ADME, organism-based, Canis lupus familiaris; set-up: dose 5 mg/kg, route subcutaneous
smiles,measurement,setting,value
Cc1cc(/C=C/C#N)cc(C)c1Nc1ccnc(Nc2ccc(C#N)cc2)n1 [RILPIVIRINE],Kp at 2191.5 h,[1],2.8
same,Kp at 4383 h,[2],4.3
same,AUC(0-t) at 4416 h,[3],24400 ng·h/mL
same,Kp at 4383 h,[4],16
same,concentration at 2191.5 h,[5],76 ng/g
same,Cmax,[6],1140 ng/mL
same,concentration at 4383 h,[7],< 5 ng/g
same,Kp at 730.5 h,[8],2.6
same,Kp at 2191.5 h,[9],2.3
same,Kp at 2191.5 h,[10],3
same,concentration at 730.5 h,[11],285 ng/g
same,Kp at 2191.5 h,[12],2.9
same,Kp at 730.5 h,[13],2
same,Kp at 2191.5 h,[14],4.9
same,concentration at 730.5 h,[15],118 ng/g
same,concentration at 4383 h,[16],13.3 ng/g
same,Activity,Canis familiaris [17],Non-toxic
same,Cmax,[18],173 ng/mL
same,concentration at 730.5 h,[19],576 ng/g
same,concentration at 4383 h,[20],11500 ng/g
same,concentration at 2191.5 h,[21],26.8 ng/mL
same,concentration at 730.5 h,[22],676 ng/g
same,concentration at 730.5 h,[23],74.5 ng/mL
same,bioavailability,[24],102%
same,concentration at 730.5 h,[25],189 ng/g
same,Kp at 4383 h,[26],6.7
same,Cmax,[27],119 ng/mL
same,concentration at 2191.5 h,[28],11.3 ng/g
same,concentration at 2191.5 h,[29],16.7 ng/g
same,AUC(0-inf),[30],8660 ng·h/mL
same,Kp at 730.5 h,[31],2.3
same,Kp at 730.5 h,[32],2.5
same,concentration at 2191.5 h,[33],27.4 ng/g
same,concentration at 2191.5 h,[34],10.1 ng/mL
same,concentration at 2191.5 h,[35],84.2 ng/g
same,AUC(0-t) at 4224 h,[36],19700 ng·h/mL
same,Tmax,[37],4.6 h
same,Kp at 730.5 h,[38],3.9
same,concentration at 4383 h,[39],12.2 ng/g
same,Tmax,Canis familiaris [40],144 h
same,concentration at 2191.5 h,[41],3.3 ng/mL
same,AUC(0-t) at 2040 h,[42],97800 ng·h/mL
same,Tmax,[43],24 h
same,Cmax,[44],6190 ng/mL
same,concentration at 4383 h,[45],9.9 ng/g
same,concentration at 730.5 h,[46],61 ng/g
same,concentration at 4383 h,[47],11.6 ng/g
same,concentration at 730.5 h,[48],158 ng/mL
same,Cp,Plasma,BLD
same,concentration at 2191.5 h,[49],< 1 ng/mL
same,AUC(0-t) at 696 h,[50],56800 ng·h/mL
same,concentration at 4383 h,[51],< 5 ng/g
same,Activity,Canis familiaris [52],Non-toxic
same,Cmax,[53],191 ng/mL
same,Kp at 730.5 h,[54],4.1
